Results as given in patent publication EP0497852B1, “BICYCLO-IMIDAZOLES, PROCESS FOR PRODUCING THEM AND DRUGS CONTAINING THEM” (BOEHRINGER MANNHEIM GMBH, priority 1989, dated 1991).

tested on: Erythrozyten-Aggregation; experiment: Erythrocyte aggregation in human blood, Mini-Erythrozyten-Aggregometer (Myrenne); format: cell-based, Humanblut gesunder Spender; settings: 10⁻⁵ M, haematocrit 45 %, difference between control baseline and substance solution, two experiments, different donors, index dimensionless
Source text: Die Bestimmung der Erythrozyten-Aggregation als Parameter für die Hämorheologie erfolgte mit dem Mini-Erythrozyten-Aggregometer der Fa. Myrenne, Roetgen¹). Als Maß gibt dieses Gerät einen dimensionslosen Index an, der mit steigender Aggregationstendenz zunimmt.
Die Untersuchungen wurden mit dem Humanblut gesunder Spender durchgeführt. Das auf einen Haematokrit von 45 % eingestellte Blut wurde mit der Kontrollösung oder den Substanzlösungen inkubiert. Anschließend wurde die Erythrozyten-Aggregation gemessen. Jede Substanz wurde bei einer Konzentration von 10⁻⁵ M untersucht. Pro Substanz wurden zwei Versuche mit dem Blut verschiedener Spender durchgeführt. Es wurde die Differenz der Aggregationsindices zwischen dem Ausgangswert der Kontrollösung und den Werten der Substanzlösung errechnet. Diese Werte sind in der folgenden Tabelle aufgelistet.

Structure (SMILES)	Differenz der Erythrozytenaggregationsindices (E₂-E₁)
CCN1C(=O)C(C)(C)c2cc(-c3c[nH]c(-c4ccc(F)cc4)n3)ccc21 [Beispiel 5, 1,3-Dihydro-3,3-dimethyl-1-ethyl-5-[2-(4-fluorphenyl)-4(1H)-imidazolyl]-(2H)-indol-2-on]	-8.7
CC1(C)C(=O)Nc2ccc(-c3c[nH]c(-c4ccc(Cl)cc4)n3)cc21 [Beispiel 6, 1,3-Dihydro-3,3-dimethyl-5-[2-(4-chlorphenyl)-4(1H)-imidazolyl]-(2H)-indol-2-on]	-8.2
CC1(C)CC(=O)Nc2ccc(-c3c[nH]c(-c4ccccc4)n3)cc21 [Beispiel 14, 3,4-Dihydro-4,4-dimethyl-6-[2-phenyl-4(1H)-imidazolyl]-2(1H)-chinolinon]	-7.2
CN1C(=O)C(C)(C)c2cc(-c3c[nH]c(-c4ccccc4)n3)ccc21 [Beispiel 17, 1,3-Dihydro-1,3,3-trimethyl-5-[2-phenyl-4(1H)-imidazolyl]-(2H)-indol-2-on]	-8.6
